The source of these data is ChEMBL document CHEMBL4043251, “Synthesis of conjugates between oxazolidinone antibiotics and a pyochelin analogue” (Bioorg Med Chem Lett, 2017).

Molecules are shown by their SMILES. Activity calls are given as the source filed them. No cut-off for these calls is given here.

Data set [1] is described as follows: Solubility of the compound in aqueous medium. The class given is physicochemical. The following applies: buffer.
Data set [2] in a line: Solubility of the compound in physiological medium. The class given is physicochemical.
A further data set relates to Pseudomonas aeruginosa. The data set is described as follows: Antibacterial activity against Pseudomonas aeruginosa PAO1 by disc diffusion method. The class given is functional.

Take `CC(=O)NC[C@H]1CN(c2ccc(N3CCN(C(=O)OCCOCCOCC(=O)NCCCN4C([C@H]5CSC(c6ccccc6O)=N5)SC[C@H]4C(=O)O)CC3)c(F)c2)C(=O)O1` (stereo partly drawn): the solubility result in data set [1] and in data set [2] was “Insoluble” each time. The result in the data set on Pseudomonas aeruginosa was inactive.
Take `CC(=O)NC[C@H]1CN(c2ccc(N3CCN(C(=O)CNC(=O)OCCOCCOCC(=O)NCCCN4C([C@H]5CSC(c6ccccc6O)=N5)SC[C@H]4C(=O)O)CC3)c(F)c2)C(=O)O1` (stereo partly drawn): the solubility result in data set [1] and in data set [2] was “Insoluble” each time. Also, the result in the data set with Pseudomonas aeruginosa was inactive.
As to `CC(=O)NC[C@H]1CN(c2ccc(N3CCN(C(=O)CCC(=O)NCCCN4C([C@H]5CSC(c6ccccc6O)=N5)SC[C@H]4C(=O)O)CC3)c(F)c2)C(=O)O1` (stereo partly drawn), in data set [2], the solubility result is “Insoluble”. Further, the result in the data set with Pseudomonas aeruginosa was inactive.
